“And” between values parts separate entries of the source, which are not always exact repeats. Equal entries are not always repeated.
Tests used:
Mushroom tyrosinase = Mushroom tyrosinase (Agaricus bisporus, UniProt C7FF04); assay: Enzyme kinetics with tyrosinase (substrate disappearance by HPLC, Lineweaver-Burk); type: biochemical; settings: result in words
Experimental: (§1) Mushroom tyrosinase (400 units/mg) and plasma MAO (1000 units/gm) were obtained from Sigma Chemical Co. (St. Louis, MO, USA). A reaction mixture consisted of a substrate of 7 to 8 different concentrations (40 to 500 »M for mushroom tyrosinase and 20 to 200 »M for MAO) and of either mushroom tyrosinase (2.5 »g) or MAO (10 »g) in 1.0 mL of 0.05 M sodium phosphate buffer, pH 6.8 and 7.4 respectively. The reactions were carried out at 37°C in a shaking water bath, and stopped by taking 100 »L of the reaction mixture and adding it to 900 »L of 0.4 M HCLO₄. The disappearance of substrate was followed using HPLC (high pressure liquid chromatography) Km and Vmax values were calculated from the Lineweaver-Burk plots.

B16 melanoma = assay: In vivo growth inhibition of s.c. inoculated B16 melanoma; set-up: species or system C57BL/6J mice; settings: day 12 or 13
Experimental: The in vivo antimelanoma effect of the compounds were evaluated by percent growth inhibition of inoculated tumour (%g.i.). The percent g.i. was computed from the mean tumour volume at day 12 or 13 of the experiments; i.e., 100 x (1- treated group/control group). […] To further examine whether a minimal dose of N-Ac-4-S-CAP, 200 mg/Kg has an antimelanoma effect, three groups of mice were treated with N-Ac-4-S-CAP. […] One of the advantages of N-Ac-4-S-CAP over 4-S-CAP was that it had much higher LD⁵⁰ (as high as 1400 mg/Kg of body weight, and therefore a greater range of safety).

melanocytes = assay: Light and electron microscopy of melanocytes in regrowing hair follicles; type: in vivo, mice
Experimental: In six groups of 4 mice (1 control and 1 for each compound) were treated daily with the control or compound injected i.p. The compounds tested were 4-S-CAP, N-Ac-4-S-CAP and α-Me-4-S-CAP. Samples of skin and regrowing hair follicles were excised under brief general anaesthesia on day 10 (late anagen phase), fixed in Karnovsky's solution (2.5% glutaraldehyde and 2.5% paraformaldehyde in 0l1 M cacodylate buffer), and refixed in 1% osmium tetroxide in cadodylate buffer. Tissues were stained en bloc with 1.5% uranyl acetate in o.1 M veronal buffer for 30min, dehydrated in graded ethanol solutions, embedded in epoxy resin, and sectioned with a Potter-Blum ultramicrotome MT II. Sections 1.0 »m thick were stained with methylene blue for light microscopy, thin sections were stained with led citrate for electron microscopy.

B16F10 melanoma = assay: Melanoma-colony formation in the lungs; type: in vivo, mice; settings: 900 mg/kg i.p. daily for 14 days from day five; lungs excised day 26
Experimental: Murine B16F10 melanoma cell line with a strong metastatic property to form tumour colonies in the lungs was obtained from Dr. Longenecker, Department of Immunology, University of Alberta. Such cell line is well recognized and readily available as reported in Miura et al, supra. The cells were grown in T-75 flasks in dulbecco's MEM available from Gipco Lab Inc., Grand Island, New York, supplemented with 10% fetal calf serum, also obtained from Gipco, penicillin (100 »/ml) and streptomycin (100 »g/ml). The cells were incubated at 37°C in humidified atmosphere of 5% CO₂ in air. The cells were harvested by applying a thin layer of 0.25% trypsin solution in EDTA, washed and resuspended in cold N saline solution. Viable cells were identified by trypan blue dye exclusion and counted. The cell suspension was diluted to the desired concentration. Three groups of mice were studied using a control 4-S-CAP and N-Ac-4-S-CAP as the active agents in the treatment. On day zero, the mice were inoculated via the lateral tail vein with 5 x 10⁴ cells in 0.2 ml of N saline. The test drugs were dissolved in normal saline, sterilized by membrane filtration, and administered in a dose of 300 mg/Kg (4-S-CAP) or 900 mg/Kg (N-Ac-4-S-CAP); starting on day five, the control solution or drug was injected i.p. daily for 14 days. On day 26, the mice were killed by cervical dislocation, their lungs were removed, and the number of melanoma colonies was counted under a dissecting microscope. The results were expressed as percentage reduction in the number of colonies: [a - b/a] x 100, where a = colonies in control group and b = colonies in experimental group.

plasma MAO = molecular target: T1, plasma MAO (Bos taurus, UniProt Q29437); assay: Enzyme kinetics with monoamineoxidase (substrate disappearance by HPLC, Lineweaver-Burk); type: biochemical; settings: result in words
T1 construct: purchased Sigma Chemical Co. (St. Louis, MO, USA)
T1 sequence (Q29437 17-762): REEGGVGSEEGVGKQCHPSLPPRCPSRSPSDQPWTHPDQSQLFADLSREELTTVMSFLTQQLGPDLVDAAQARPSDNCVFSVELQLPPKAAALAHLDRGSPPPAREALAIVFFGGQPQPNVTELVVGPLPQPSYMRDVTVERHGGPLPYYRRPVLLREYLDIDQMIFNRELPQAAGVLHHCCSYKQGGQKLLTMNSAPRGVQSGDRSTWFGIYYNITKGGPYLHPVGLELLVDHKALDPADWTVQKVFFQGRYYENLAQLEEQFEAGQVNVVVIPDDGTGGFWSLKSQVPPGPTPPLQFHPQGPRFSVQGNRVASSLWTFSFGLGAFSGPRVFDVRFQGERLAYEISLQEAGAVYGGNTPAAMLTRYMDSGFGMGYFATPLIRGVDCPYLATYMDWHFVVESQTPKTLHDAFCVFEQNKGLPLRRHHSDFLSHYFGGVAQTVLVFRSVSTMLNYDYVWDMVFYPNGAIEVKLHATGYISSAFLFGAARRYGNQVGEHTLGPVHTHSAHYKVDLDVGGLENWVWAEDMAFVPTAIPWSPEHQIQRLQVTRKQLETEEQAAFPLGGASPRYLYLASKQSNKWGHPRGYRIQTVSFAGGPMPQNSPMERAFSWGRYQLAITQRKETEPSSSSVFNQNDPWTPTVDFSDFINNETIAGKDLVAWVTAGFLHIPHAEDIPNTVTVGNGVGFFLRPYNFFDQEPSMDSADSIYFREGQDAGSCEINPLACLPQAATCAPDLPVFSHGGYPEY
Experimental: as §1

[1] = Experiment I, 200 mg/Kg i.p. daily for nine days
[2] = Experiment I, 400 mg/Kg i.p. daily for nine days
[3] = Experiment I, 600 mg/Kg i.p. daily for nine days
[4] = Experiment I, 800 mg/Kg i.p. daily for nine days
[5] = Experiment II, 400 mg/Kg i.p. daily for nine days
[6] = Experiment II, 800 mg/Kg i.p. daily for nine days
[7] = Experiment II, 1200 mg/Kg i.p. daily for nine days

Mushroom tyrosinase, sequence (C7FF04 1-392): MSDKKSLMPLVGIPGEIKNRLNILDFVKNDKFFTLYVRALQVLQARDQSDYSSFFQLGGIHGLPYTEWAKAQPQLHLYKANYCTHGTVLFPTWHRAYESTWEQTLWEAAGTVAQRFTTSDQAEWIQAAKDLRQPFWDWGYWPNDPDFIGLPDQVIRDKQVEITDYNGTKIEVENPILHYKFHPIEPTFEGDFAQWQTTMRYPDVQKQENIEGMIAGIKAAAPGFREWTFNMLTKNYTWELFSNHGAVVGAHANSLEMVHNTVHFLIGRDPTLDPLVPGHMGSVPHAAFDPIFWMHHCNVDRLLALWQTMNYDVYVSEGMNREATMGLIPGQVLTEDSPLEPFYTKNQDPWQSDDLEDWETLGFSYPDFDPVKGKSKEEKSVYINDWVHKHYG

## CC(=O)NCCSc1ccc(O)cc1 [N-Ac-4-S-CAP, N-ACETYL-4-S-CYSTEAMINYLPHENOL]
Mushroom tyrosinase
  tyrosinase substrate: is also a tyrosinase substrate
B16 melanoma; [1]
  %Gi: 39.8%
  Tumour Volume: 313 ± 83 mm^3
B16 melanoma; [2]
  %Gi: 57.3%
  Tumour Volume: 222 ± 13 mm^3
B16 melanoma; [3]
  %Gi: 63.18%
  Tumour Volume: 192 ± 48 mm^3
B16 melanoma; [4]
  %Gi: 74.4%
  Tumour Volume: 133 ± 11 mm^3
B16 melanoma; Experiment II, 200 mg/Kg i.p. daily for nine days
  %Gi: 32.0%
B16 melanoma; [5]
  %Gi: 34.0%
  Tumour Volume: 359 ± 52 mm^3
B16 melanoma; [6]
  %Gi: 63.4%
  Tumour Volume: 199 ± 26 mm^3
B16 melanoma; [7]
  %Gi: 70.7%
  Tumour Volume: 159 ± 23 mm^3
melanocytes; i.p. daily, day 10 (late anagen phase)
  light microscopy of hair follicles: functioning melanocytes and melanin pigments: neither functioning melanocytes nor melanin pigments remained in the follicles
melanocytes; i.p. injection for 10 days
  electron microscopy of hair follicles: melanocytes and melanosomes: no melanocytes or melanosomes were visible
B16F10 melanoma
  No. of Colonies % control: 25% and 24.9%
  No. of Colonies per pair of lungs: 21.5 ± 10.8
Plasma MAO
  substrate for plasma MAO: not, however, a substrate for plasma MAO

— patent publication EP0526502B1, “PHENOLIC AMINE DEPIGMENTING AND ANTIMELANOMA AGENTS” (The Governors of the University of Alberta, priority 1990, dated 1991)
